Among the data in article PMC6850446, “In vivo inactivation of glycosidases by conduritol B epoxide and cyclophellitol as revealed by activity‐based protein profiling” (The Febs Journal, 2019) are IC50 values, retold here.

One experiment concerns the target T1, GBA (zebrafish larvae) (Danio rerio, UniProt E7EZM1).
T1 construct: gene gba1; endogenous enzyme in larvae, measured in larval lysate
T1 sequence (E7EZM1 20-518): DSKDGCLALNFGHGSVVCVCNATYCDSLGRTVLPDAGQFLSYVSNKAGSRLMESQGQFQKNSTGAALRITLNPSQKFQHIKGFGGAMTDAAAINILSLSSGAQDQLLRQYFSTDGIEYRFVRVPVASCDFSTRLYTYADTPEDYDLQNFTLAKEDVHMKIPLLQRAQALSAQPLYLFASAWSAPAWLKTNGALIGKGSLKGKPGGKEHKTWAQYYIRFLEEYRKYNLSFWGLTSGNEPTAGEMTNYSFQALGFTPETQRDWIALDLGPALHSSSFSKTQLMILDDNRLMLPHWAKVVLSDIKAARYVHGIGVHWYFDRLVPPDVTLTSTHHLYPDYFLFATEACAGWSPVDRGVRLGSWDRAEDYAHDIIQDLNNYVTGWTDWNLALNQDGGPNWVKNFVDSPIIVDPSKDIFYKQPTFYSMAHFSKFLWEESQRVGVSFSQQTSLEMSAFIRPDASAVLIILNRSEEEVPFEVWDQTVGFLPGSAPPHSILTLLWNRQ
The experiment can be described thus: live larvae exposed, residual activity in lysate with 4MU-glucoside. To be noted: covalent, in vivo: concentration in egg water, 5 days at 28.5 °C, assay pH 5.2 with AMP-DNM. The source says:
live larvae exposed, residual activity in lysate with 4MU-glucoside on GBA (zebrafish larvae)

In a further experiment the target is T2, GBA3 (Homo sapiens, UniProt Q9H227).
T2 construct: human GBA3 overexpressed in HEK293T; expected 45-53 kDa
T2 sequence (Q9H227 1-469): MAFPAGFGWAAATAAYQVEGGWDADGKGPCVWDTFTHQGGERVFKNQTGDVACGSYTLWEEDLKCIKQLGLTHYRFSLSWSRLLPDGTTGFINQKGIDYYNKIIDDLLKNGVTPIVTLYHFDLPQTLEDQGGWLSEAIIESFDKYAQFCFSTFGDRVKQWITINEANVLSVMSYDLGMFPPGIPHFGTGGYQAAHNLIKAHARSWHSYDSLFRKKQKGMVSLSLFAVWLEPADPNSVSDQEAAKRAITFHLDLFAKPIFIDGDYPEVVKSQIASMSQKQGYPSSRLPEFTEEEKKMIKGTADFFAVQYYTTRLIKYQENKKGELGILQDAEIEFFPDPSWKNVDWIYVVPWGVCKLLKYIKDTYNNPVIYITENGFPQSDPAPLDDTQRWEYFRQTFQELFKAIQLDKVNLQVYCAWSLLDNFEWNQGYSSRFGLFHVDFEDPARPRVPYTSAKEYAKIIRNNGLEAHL
The experiment can be described thus: intact cells treated, residual activity in lysate supernatant with 4MU-glucoside. Type of experiment: cell-based. From the text: intact cells treated, residual activity in lysate supernatant with 4MU-glucoside on GBA3

The target of the next experiment is T3, GBA (HEK293T cells) (Homo sapiens, UniProt P04062).
T3 construct: gene GBA1; endogenous lysosomal enzyme in HEK293T cells that stably express human GBA2; 58-66 kDa on gel
T3 sequence (P04062 40-536): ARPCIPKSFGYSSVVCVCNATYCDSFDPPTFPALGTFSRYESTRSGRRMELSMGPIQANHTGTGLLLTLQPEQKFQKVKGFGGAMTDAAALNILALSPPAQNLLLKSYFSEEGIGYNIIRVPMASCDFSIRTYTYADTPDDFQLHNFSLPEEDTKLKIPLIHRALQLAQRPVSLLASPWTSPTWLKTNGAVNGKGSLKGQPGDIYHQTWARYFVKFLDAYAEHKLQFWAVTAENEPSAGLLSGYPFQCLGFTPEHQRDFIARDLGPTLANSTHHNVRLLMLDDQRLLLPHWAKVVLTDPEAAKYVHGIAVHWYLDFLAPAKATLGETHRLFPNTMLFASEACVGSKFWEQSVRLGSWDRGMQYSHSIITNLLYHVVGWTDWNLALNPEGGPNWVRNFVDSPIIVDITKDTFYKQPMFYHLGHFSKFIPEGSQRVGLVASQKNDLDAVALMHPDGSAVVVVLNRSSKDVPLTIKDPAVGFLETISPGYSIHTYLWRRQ
The experiment is described as follows: intact cells treated, residual activity in lysate with 4MU-glucoside. Type of experiment: cell-based. The settings on record: covalent, 24 h treatment of intact HEK293T cells, assay pH 5.2 with 25 nM AMP-DNM to block GBA2. From the text:
intact cells treated, residual activity in lysate with 4MU-glucoside on GBA (HEK293T cells)

The target in another experiment is T4, GAA (zebrafish larvae) (Danio rerio, UniProt A0A8M1QKP5).
T4 construct: endogenous enzyme in larvae, measured in larval lysate; paralogues not distinguished
T4 sequence (A0A8M1QKP5 31-918): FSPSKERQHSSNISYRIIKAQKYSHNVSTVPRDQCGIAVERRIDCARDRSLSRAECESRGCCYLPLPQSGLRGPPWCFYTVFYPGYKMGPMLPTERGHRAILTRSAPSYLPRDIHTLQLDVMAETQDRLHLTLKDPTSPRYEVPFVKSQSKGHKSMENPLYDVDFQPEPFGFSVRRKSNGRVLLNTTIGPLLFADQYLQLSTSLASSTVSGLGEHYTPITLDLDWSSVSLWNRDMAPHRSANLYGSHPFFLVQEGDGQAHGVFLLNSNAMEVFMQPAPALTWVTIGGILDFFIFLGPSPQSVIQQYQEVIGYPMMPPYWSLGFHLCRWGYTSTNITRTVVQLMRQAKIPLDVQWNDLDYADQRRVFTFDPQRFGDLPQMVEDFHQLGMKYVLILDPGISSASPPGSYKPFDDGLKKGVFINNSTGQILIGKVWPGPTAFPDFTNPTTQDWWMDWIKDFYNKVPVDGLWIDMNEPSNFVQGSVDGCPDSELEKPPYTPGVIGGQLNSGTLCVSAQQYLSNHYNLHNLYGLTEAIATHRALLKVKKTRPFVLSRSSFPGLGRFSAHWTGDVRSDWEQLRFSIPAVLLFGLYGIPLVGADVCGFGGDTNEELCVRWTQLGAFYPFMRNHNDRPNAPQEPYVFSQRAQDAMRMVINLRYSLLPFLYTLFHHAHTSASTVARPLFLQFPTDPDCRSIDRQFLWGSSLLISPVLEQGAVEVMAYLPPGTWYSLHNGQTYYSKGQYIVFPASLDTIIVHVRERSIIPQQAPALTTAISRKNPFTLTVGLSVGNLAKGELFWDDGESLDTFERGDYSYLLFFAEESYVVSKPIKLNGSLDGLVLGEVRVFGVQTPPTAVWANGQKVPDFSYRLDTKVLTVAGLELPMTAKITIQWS
The experiment can be described thus: live larvae exposed, residual activity in lysate with 4MU-alpha-D-glucopyranoside. The settings on record: in vivo: concentration in egg water, 5 days at 28.5 °C, assay pH 4.0. From the text: live larvae exposed, residual activity in lysate with 4MU-alpha-D-glucopyranoside on GAA (zebrafish larvae)

Where two headings read alike, the source gives them in different places.

Turning to `OC[C@@H]1[C@@H](O)[C@H](O)[C@@H](O)[C@@H]2O[C@H]12` [compound 2, cyclophellitol], the IC50 at GBA (zebrafish larvae) (read-out: CP / Enz. assay) is 0.13 µM; at GBA3 (read-out: CP / Enz. assay), greater than 10 µM; at GBA (HEK293T cells) (read-out: CP / Enz. assay) it was 0.086 µM; at GAA (zebrafish larvae) (read-out: CP / Enz. assay) it was greater than 100 µM.

Regarding `OC1C(O)C(O)C2OC2C1O` (centres unmarked) [compound 1, conduritol B epoxide], the IC50 was 58.5 µM at GBA (zebrafish larvae) (read-out: CBE / Enz. assay); 474 µM at GBA3 (read-out: CBE / Enz. assay); 0.331 µM on GBA (HEK293T cells) (read-out: CBE / Enz. assay); 5010 µM on GAA (zebrafish larvae) (covalent, read-out: CBE / Enz. assay).
